Test results published in the NIST ThermoML archive (doi:10.1016/j.tca.2014.05.028).

Experiment: xn = mol fraction of the nth substance listed
Conditions: 101 kPa, Liquid; for viscosity: Falling or rolling sphere viscometry; for mass density: Vibrating tube method

CCCCC[N+]1(C)CCCC1.[Br-] [1-methyl-1-pentylpyrrolidinium bromide] + O
Conditions | mass density [kg/m3] | viscosity [mPa·s]
298.15 K, x1 = 0.0313 | 1054.87 | 1.987
298.15 K, x1 = 0.0592 | 1089.64 | 3.402
298.15 K, x1 = 0.0944 | 1119.19 | 6.013
298.15 K, x1 = 0.1301 | 1139.59 | 10.08
298.15 K, x1 = 0.1566 | 1150.73 | 14.2
298.15 K, x1 = 0.1964 | 1163.63 | 22.59
298.15 K, x1 = 0.2468 | 1175.13 | 38.27
298.15 K, x1 = 0.3028 | 1184.58 | 66.43
298.15 K, x1 = 0.3503 | 1190.28 | 102.55
298.15 K, x1 = 0.4097 | 1195.59 | 175.43
298.15 K, x1 = 0.445 | 1198.37 | 241.18
298.15 K, x1 = 1 | 1188.96 | –
303.15 K, x1 = 0.0313 | 1052.43 | 1.728
303.15 K, x1 = 0.0592 | 1086.59 | 2.903
303.15 K, x1 = 0.0944 | 1115.78 | 5.036
303.15 K, x1 = 0.1301 | 1136.1 | 8.404
303.15 K, x1 = 0.1566 | 1147.25 | 11.61
303.15 K, x1 = 0.1964 | 1160.15 | 18.05
303.15 K, x1 = 0.2468 | 1171.69 | 29.76
303.15 K, x1 = 0.3028 | 1181.21 | 50.36
303.15 K, x1 = 0.3503 | 1186.96 | 76.83
303.15 K, x1 = 0.4097 | 1192.35 | 128.64
303.15 K, x1 = 0.445 | 1195.15 | 173.72
303.15 K, x1 = 1 | 1185.14 | –
308.15 K, x1 = 0.0313 | 1049.86 | 1.469
308.15 K, x1 = 0.0592 | 1083.44 | 2.433
308.15 K, x1 = 0.0944 | 1112.34 | 4.142
308.15 K, x1 = 0.1301 | 1132.57 | 6.871
308.15 K, x1 = 0.1566 | 1143.72 | 9.343
308.15 K, x1 = 0.1964 | 1156.64 | 14.22
308.15 K, x1 = 0.2468 | 1168.24 | 22.83
308.15 K, x1 = 0.3028 | 1177.83 | 37.83
308.15 K, x1 = 0.3503 | 1183.64 | 56.94
308.15 K, x1 = 0.4097 | 1189.09 | 93.53
308.15 K, x1 = 0.445 | 1191.92 | 124.68
308.15 K, x1 = 1 | 1181.35 | –
313.15 K, x1 = 0.0313 | 1047.17 | 1.288
313.15 K, x1 = 0.0592 | 1080.23 | 2.104
313.15 K, x1 = 0.0944 | 1108.85 | 3.523
313.15 K, x1 = 0.1301 | 1129.01 | 5.794
313.15 K, x1 = 0.1566 | 1140.17 | 7.793
313.15 K, x1 = 0.1964 | 1153.12 | 11.62
313.15 K, x1 = 0.2468 | 1164.79 | 18.25
313.15 K, x1 = 0.3028 | 1174.44 | 29.54
313.15 K, x1 = 0.3503 | 1180.31 | 43.93
313.15 K, x1 = 0.4097 | 1185.82 | 70.78
313.15 K, x1 = 0.445 | 1188.67 | 94.43
313.15 K, x1 = 1 | 1177.58 | –
318.15 K, x1 = 0.0313 | 1044.36 | 1.152
318.15 K, x1 = 0.0592 | 1076.94 | 1.849
318.15 K, x1 = 0.0944 | 1105.32 | 3.055
318.15 K, x1 = 0.1301 | 1125.43 | 4.98
318.15 K, x1 = 0.1566 | 1136.58 | 6.632
318.15 K, x1 = 0.1964 | 1149.57 | 9.734
318.15 K, x1 = 0.2468 | 1161.33 | 14.99
318.15 K, x1 = 0.3028 | 1171.04 | 23.75
318.15 K, x1 = 0.3503 | 1176.97 | 35.02
318.15 K, x1 = 0.4097 | 1182.56 | 55.19
318.15 K, x1 = 0.445 | 1185.43 | 73.04
318.15 K, x1 = 1 | 1173.84 | –
323.15 K, x1 = 0.0313 | 1041.42 | 1.018
323.15 K, x1 = 0.0592 | 1073.59 | 1.61
323.15 K, x1 = 0.0944 | 1101.75 | 2.62
323.15 K, x1 = 0.1301 | 1121.81 | 4.239
323.15 K, x1 = 0.1566 | 1132.97 | 5.594
323.15 K, x1 = 0.1964 | 1146.01 | 8.098
323.15 K, x1 = 0.2468 | 1157.86 | 12.24
323.15 K, x1 = 0.3028 | 1167.63 | 19.02
323.15 K, x1 = 0.3503 | 1173.62 | 27.61
323.15 K, x1 = 0.4097 | 1179.3 | 43.02
323.15 K, x1 = 0.445 | 1182.19 | 56.06
323.15 K, x1 = 1 | 1170.12 | –
328.15 K, x1 = 0.0313 | 1038.21 | 0.901
328.15 K, x1 = 0.0592 | 1070.18 | 1.406
328.15 K, x1 = 0.0944 | 1098.14 | 2.253
328.15 K, x1 = 0.1301 | 1118.16 | 3.594
328.15 K, x1 = 0.1566 | 1129.34 | 4.737
328.15 K, x1 = 0.1964 | 1142.42 | 6.779
328.15 K, x1 = 0.2468 | 1154.37 | 10.1
328.15 K, x1 = 0.3028 | 1164.2 | 15.38
328.15 K, x1 = 0.3503 | 1170.27 | 22.07
328.15 K, x1 = 0.4097 | 1176.04 | 33.82
328.15 K, x1 = 0.445 | 1178.95 | 43.84
328.15 K, x1 = 1 | 1166.42 | –
333.15 K, x1 = 0.0313 | 1034.52 | 0.806
333.15 K, x1 = 0.0592 | 1066.7 | 1.238
333.15 K, x1 = 0.0944 | 1094.49 | 1.961
333.15 K, x1 = 0.1301 | 1114.49 | 3.084
333.15 K, x1 = 0.1566 | 1125.68 | 4.048
333.15 K, x1 = 0.1964 | 1138.81 | 5.734
333.15 K, x1 = 0.2468 | 1150.85 | 8.449
333.15 K, x1 = 0.3028 | 1160.77 | 12.68
333.15 K, x1 = 0.3503 | 1166.91 | 18.16
333.15 K, x1 = 0.4097 | 1172.78 | 27.16
333.15 K, x1 = 0.445 | 1175.7 | 35.05
333.15 K, x1 = 1 | 1162.75 | –
338.15 K, x1 = 0.0313 | 1031.9 | 0.735
338.15 K, x1 = 0.0592 | 1063.16 | 1.117
338.15 K, x1 = 0.0944 | 1090.8 | 1.75
338.15 K, x1 = 0.1301 | 1110.78 | 2.707
338.15 K, x1 = 0.1566 | 1121.99 | 3.551
338.15 K, x1 = 0.1964 | 1135.18 | 4.983
338.15 K, x1 = 0.2468 | 1147.32 | 7.259
338.15 K, x1 = 0.3028 | 1157.32 | 10.76
338.15 K, x1 = 0.3503 | 1163.54 | 15.24
338.15 K, x1 = 0.4097 | 1169.46 | 22.53
338.15 K, x1 = 0.445 | 1172.45 | 28.48
338.15 K, x1 = 1 | 1159.1 | –
343.15 K, x1 = 0.0313 | 1026.38 | 0.661
343.15 K, x1 = 0.0592 | 1059.56 | 0.991
343.15 K, x1 = 0.0944 | 1087.07 | 1.532
343.15 K, x1 = 0.1301 | 1107.04 | 2.328
343.15 K, x1 = 0.1566 | 1118.28 | 3.039
343.15 K, x1 = 0.1964 | 1131.53 | 4.253
343.15 K, x1 = 0.2468 | 1143.76 | 6.138
343.15 K, x1 = 0.3028 | 1153.87 | 9.006
343.15 K, x1 = 0.3503 | 1160.16 | 12.52
343.15 K, x1 = 0.4097 | 1166.21 | 18.43
343.15 K, x1 = 0.445 | 1169.19 | 22.9
343.15 K, x1 = 1 | 1155.48 | –
